Test [1] deals with Ileum. Nature of the test: Spasmolytic activity in isolated guinea pig ileum assessed as spasmogen-induced inhibition of smooth muscle contraction. It is filed as functional, tissue-based. The conditions noted are these: Cavia porcellus.
In test [2] the test system is Ileum. Nature of the test: (§1) Spasmolytic activity in isolated guinea pig ileum assessed as spasmogen-induced inhibition of smooth muscle contraction at 10 ug. Format: functional, Cavia porcellus. Also on record: scale not given: the % may be the effect or the level left.
In test [3] the test system is Ileum. Described as §1. Also on record: scale not given: the % may be the effect or the level left. It is filed as functional, Cavia porcellus. This is another data set of the same source.

The structures appear in SMILES notation. Values after ≈ are worked out from the molar mass of the structure shown.

On to `COc1cc2c(cc1OC)[C@@H]([C@H]1OC(=O)c3c1ccc1c3OCO1)N(C)CC2` [CORLUMINE], for which the figures for the Activity entry in the test with Ileum [1], in the test with Ileum [2] and with Ileum [3] were “Dose-dependent effect”, 0% and 50%, respectively.
Turning to `COc1cc2c(cc1OC)[C@H]1[C@@H](C)c3ccc4c(c3CN1CC2)OCO4` [CAVIDINE], the Activity entry was “Dose-dependent effect” in the test on Ileum [1], 84% with Ileum [2] and 100% in the test on Ileum [3].
In the case of `COc1cc2c(cc1OC)C1(C(=O)c3ccc4c(c3[C@H]1O)OCO4)N(C)CC2` (stereo partly drawn) [YENHUSOMIDINE], the Activity entry was “Dose-dependent effect” in the test on Ileum [1], 17% with Ileum [2] and 52% in the test with Ileum [3]. For the same molecule, the IC50 with Ileum [1] came out at 0.5 µg/mL (≈ 1.3 µM).
Turning to `COc1cc2c(cc1OC)-c1c(C)c3ccc4c(c3c[n+]1CC2)OCO4.[Cl-]` [DEHYDROCAVIDINE], the Activity result in the test with Ileum [1] was “Dose-dependent effect”; in the test on Ileum [2], 20%; in the test with Ileum [3], 40%.

(Values after ChEMBL document CHEMBL1145659, “The alkaloids of Corydalis meifolia” (J Nat Prod, 1983).)
